This passage reports T/C results from PubChem BioAssay AID256 (DTP/NCI, 2004).

The structures appear in SMILES notation. “And” between values parts separate entries of the source, which are not always exact repeats. Equal entries are not always repeated. Toxic doses and inconclusive results are not listed.

This assay has as its system CD2F1 mice, L1210 leukemia ip, survival T/C. Kind of assay: NCI In Vivo Anticancer Drug Screen. Data for tumor model L1210 Leukemia (intraperitoneal) in CD2F1 (CDF1) mice. The settings on record: endpoint: mean survival time, higher = longer survival. The procedure, abridged: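 Compound-dosed mice with transplantable tumor versus matched vehicle controls; endpoint ratio T/C reported.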

[1] abbreviates: dose: 100.0 mg/kg/injection, schedule: Q01DX009 (ip), vehicle: saline with Tween-80.
[2] abbreviates: dose: 200.0 mg/kg/injection, schedule: Q01DX009 (ip), vehicle: saline with Tween-80.
[3] abbreviates: dose: 400.0 mg/kg/injection, schedule: Q01DX009 (ip), vehicle: saline with Tween-80.
Setting [4] is: dose: 100.0 mg/kg/injection, schedule: Q04DX003 (ip), vehicle: saline with Tween-80.
The mark [5] stands for this setting: dose: 200.0 mg/kg/injection, schedule: Q04DX003 (ip), vehicle: saline with Tween-80.
Where [6] appears, read: dose: 400.0 mg/kg/injection, schedule: Q04DX003 (ip), vehicle: saline with Tween-80.
[7] abbreviates: dose: 100.0 mg/kg/injection, schedule: Q01DX001 (ip), vehicle: saline with Tween-80.
The mark [8] stands for this setting: dose: 100.0 mg/kg/injection, schedule: Q04DX003 (ip), vehicle: saline.
Where [9] appears, read: dose: 400.0 mg/kg/injection, schedule: Q04DX003 (ip), vehicle: saline.

In the case of `CCOC(=O)Nc1cc(NCCCCc2ccccc2)c([N+](=O)[O-])c(N)n1`, the T/C by setting is: (dose: 12.5 mg/kg/injection, schedule: Q01DX001 (ip), vehicle: Klucel (hydroxypropylcellulose) (HPC)) 97 % of control; (dose: 25.0 mg/kg/injection, schedule: Q01DX001 (ip), vehicle: Klucel (hydroxypropylcellulose) (HPC)) 103 % of control; (dose: 50.0 mg/kg/injection, schedule: Q01DX001 (ip), vehicle: Klucel (hydroxypropylcellulose) (HPC)) 89 % of control.
Turning to `CCCCC1CCCCCCc2[nH]c(/C=C3\N=C(c4ccc[nH]4)C=C3OC)cc21` (configuration not stated), the T/C is, setting by setting: (dose: 0.12 mg/kg/injection, schedule: Q01DX009 (ip), vehicle: saline with Tween-80) 103 % of control; (dose: 0.25 mg/kg/injection, schedule: Q01DX009 (ip), vehicle: saline with Tween-80) 107 % of control; (dose: 0.5 mg/kg/injection, schedule: Q01DX009 (ip), vehicle: saline with Tween-80) 116 % of control; (dose: 1.0 mg/kg/injection, schedule: Q01DX009 (ip), vehicle: saline with Tween-80) 105 % of control; (dose: 2.0 mg/kg/injection, schedule: Q01DX009 (ip), vehicle: saline with Tween-80) 106 % of control.
As to `C=CCON(C)c1ccccc1`, the T/C reads like this: under setting [1], 94 % of control; under setting [2], 90 % of control; under setting [3], 99 % of control.
Consider `CCOc1ccc2c(c1)C(C)=CC(C)(C)N2`, for which the T/C is 95 % of control under setting [4], 104 % of control under setting [5] and 91 % of control under setting [6].
For the compound `CCN(CC)/C(N)=N\c1nc(C)c2cc(Cl)ccc2n1`, the T/C (dose: 100.0 mg/kg/injection, schedule: Q01DX001 (ip), vehicle: saline) was 103 % of control.
`CCCN1C(=O)C=CC1=O`: under setting [7], the T/C was 91 % of control.
Take `Cn1c(=O)[nH]c(=O)c2cc(Cl)ccc21`: the T/C was 101 % of control (dose: 100.0 mg/kg/injection, schedule: Q04DX002 (ip), vehicle: saline with Tween-80); 106 % of control (dose: 200.0 mg/kg/injection, schedule: Q04DX002 (ip), vehicle: saline with Tween-80); 121 % of control (dose: 400.0 mg/kg/injection, schedule: Q04DX002 (ip), vehicle: saline with Tween-80).
Regarding `O=C(OCC1OC(n2cnc3cc(Cl)c(Cl)cc32)C(OC(=O)c2ccccc2)C1OC(=O)c1ccccc1)c1ccccc1` (configuration not stated), the T/C was 95 % of control (dose: 12.5 mg/kg/injection, schedule: Q01DX005 (ip), vehicle: distilled water + Tween-80); 101 % of control (dose: 25.0 mg/kg/injection, schedule: Q01DX005 (ip), vehicle: distilled water + Tween-80); 93 % of control (dose: 50.0 mg/kg/injection, schedule: Q01DX005 (ip), vehicle: distilled water + Tween-80); 95 % of control (dose: 100.0 mg/kg/injection, schedule: Q01DX005 (ip), vehicle: distilled water + Tween-80).
Turning to `O=C(O)c1ccc(CC23CC4CC(CC(C4)C2)C3)cc1`, the T/C is, setting by setting: under setting [7], 91 % of control; under setting [1], 96 % of control; under setting [2], 91 % of control; (dose: 400.0 mg/kg/injection, schedule: Q01DX001 (ip), vehicle: saline with Tween-80) 91 % of control; under setting [3], 86 % of control.
Regarding `CC([NH-])C([NH-])O.O=S(=O)(O)O.[Pt+2]` (configuration not stated), the T/C by setting is: (dose: 12.5 mg/kg/injection, schedule: Q04DX003 (ip), vehicle: saline) 166 % of control; (dose: 25.0 mg/kg/injection, schedule: Q04DX003 (ip), vehicle: saline) 103 % of control.
Turning to `COc1cc(OC)c(NC(=O)Nc2ccc(N(C)C(C)=O)cc2)cc1Cl`, the T/C (dose: 50.0 mg/kg/injection, schedule: Q01DX009 (ip), vehicle: saline with Tween-80) is 88 % of control; the T/C under setting [1] was 88 % of control; the T/C under setting [2] is 88 % of control.
Take `CCOC(=O)c1[nH]cnc1/N=N/N(C)C`: the T/C by setting is: (dose: 16.5 mg/kg/injection, schedule: Q01DX009 (ip), vehicle: saline with Tween-80) 120 % of control; under setting [1], 109 % of control; under setting [4], 105 % of control.
In the case of `COc1ccc(NC(=O)Oc2ccc(Cl)cc2Cl)c(Cl)c1`, the T/C was 95 % of control (dose: 25.0 mg/kg/injection, schedule: Q01DX009 (ip), vehicle: Klucel (hydroxypropylcellulose) (HPC)); 95 % of control and 107 % of control (dose: 50.0 mg/kg/injection, schedule: Q01DX009 (ip), vehicle: Klucel (hydroxypropylcellulose) (HPC)); 98 % of control and 104 % of control (dose: 100.0 mg/kg/injection, schedule: Q01DX009 (ip), vehicle: Klucel (hydroxypropylcellulose) (HPC)); 98 % of control (dose: 100.0 mg/kg/injection, schedule: Q04DX003 (ip), vehicle: Klucel (hydroxypropylcellulose) (HPC)); 120 % of control and 102 % of control (dose: 200.0 mg/kg/injection, schedule: Q01DX009 (ip), vehicle: Klucel (hydroxypropylcellulose) (HPC)); 104 % of control (dose: 200.0 mg/kg/injection, schedule: Q04DX003 (ip), vehicle: Klucel (hydroxypropylcellulose) (HPC)). Also, for the setting “dose: 400.0 mg/kg/injection, schedule: Q04DX003 (ip), vehicle: Klucel (hydroxypropylcellulose) (HPC)”, the T/C was 112 % of control.
In the case of `CC1(C)C2CCC1(C(=O)O)C(=O)C2` (configuration not stated), the T/C under setting [4] is 92 % of control, the T/C under setting [5] was 92 % of control and the T/C under setting [6] is 87 % of control.
Take `CCN(CC)C(=O)c1cccc(COc2ccc(N3C(N)=NC(N)=NC3(C)C)cc2Cl)c1`: the T/C is 98 % of control (dose: 0.2 mg/kg/injection, schedule: Q01DX009 (ip), vehicle: saline); 98 % of control (dose: 0.4 mg/kg/injection, schedule: Q01DX009 (ip), vehicle: saline); 100 % of control (dose: 0.8 mg/kg/injection, schedule: Q01DX009 (ip), vehicle: saline); 96 % of control (dose: 1.56 mg/kg/injection, schedule: Q01DX009 (ip), vehicle: saline); 100 % of control (dose: 3.13 mg/kg/injection, schedule: Q01DX009 (ip), vehicle: saline); 96 % of control (dose: 6.25 mg/kg/injection, schedule: Q01DX009 (ip), vehicle: saline). The T/C (dose: 12.5 mg/kg/injection, schedule: Q01DX009 (ip), vehicle: saline) was 100 % of control.
As for `CC(C)CCNc1ncnc2[nH]ncc12`, the T/C runs as follows: (dose: 12.5 mg/kg/injection, schedule: Q04DX003 (ip), vehicle: Klucel (hydroxypropylcellulose) (HPC)) 106 % of control; (dose: 25.0 mg/kg/injection, schedule: Q04DX003 (ip), vehicle: Klucel (hydroxypropylcellulose) (HPC)) 106 % of control; (dose: 50.0 mg/kg/injection, schedule: Q04DX003 (ip), vehicle: Klucel (hydroxypropylcellulose) (HPC)) 100 % of control.
As for `ClC12CCC(CC1)C2`, the T/C by setting is: under setting [8], 100 % of control; (dose: 200.0 mg/kg/injection, schedule: Q04DX003 (ip), vehicle: saline) 94 % of control; under setting [9], 100 % of control.
For the compound `COc1ccccc1NC(=S)NCCO`, the T/C is, setting by setting: under setting [1], 97 % of control; under setting [2], 103 % of control; under setting [3], 98 % of control.
As to `O=C(O)CCC1NCCCO1` (configuration not stated), the T/C is, setting by setting: (dose: 100.0 mg/kg/injection, schedule: Q01DX009 (ip), vehicle: saline) 101 % of control; under setting [8], 88 % of control; (dose: 200.0 mg/kg/injection, schedule: Q01DX009 (ip), vehicle: saline) 95 % of control; (dose: 400.0 mg/kg/injection, schedule: Q01DX009 (ip), vehicle: saline) 95 % of control; under setting [9], 95 % of control.
Turning to `COc1ccc2occc2c1`, the T/C by setting is: under setting [4], 94 % of control; under setting [5], 94 % of control; under setting [6], 91 % of control.
Take `O=C(O)c1c(F)c(F)c(F)c(Br)c1F`: the T/C by setting is: under setting [4], 93 % of control; under setting [5], 93 % of control.
In the case of `Cc1c(C)c2c(c(C)c1O)CCC(C)(CCCC(C)CCCC(C)CCCC(C)C)O2` (configuration not stated), the T/C was 101 % of control under setting [1]; 95 % of control under setting [2]; 98 % of control (dose: 400.0 mg/kg/injection, schedule: Q01DX009 (ip), vehicle: Klucel (hydroxypropylcellulose) (HPC)); 101 % of control under setting [3]; 96 % of control (dose: 800.0 mg/kg/injection, schedule: Q01DX009 (ip), vehicle: Klucel (hydroxypropylcellulose) (HPC)); 96 % of control (dose: 1200.0 mg/kg/injection, schedule: Q01DX009 (ip), vehicle: Klucel (hydroxypropylcellulose) (HPC)). In addition, under “dose: 1600.0 mg/kg/injection, schedule: Q01DX009 (ip), vehicle: Klucel (hydroxypropylcellulose) (HPC)”, the T/C is 90 % of control.
Regarding `O=C(Cc1ccccn1)c1ccccc1`, the T/C runs as follows: (dose: 100.0 mg/kg/injection, schedule: Q01DX009 (ip), vehicle: other) 101 % of control; (dose: 200.0 mg/kg/injection, schedule: Q01DX009 (ip), vehicle: other) 96 % of control; (dose: 400.0 mg/kg/injection, schedule: Q01DX009 (ip), vehicle: other) 96 % of control.
